Experimental data taken from patent publication US20260007601A1, “IONIZABLE CATIONIC LIPID COMPOUND AND COMPOSITION FOR DELIVERING NUCLEIC ACID AND USE THEREOF” (BEIJING YOUCAREKECHUANG PHARMACEUTICAL TECHNOLOGY CO., LTD., priority 2023, published 2026).

Tests used:
[1] = Particle size and polydispersity index (PDI) of nanolipid particles, dynamic light scattering; format: physicochemical; conditions: LNP formulation prepared from the named cationic lipid, 25° C
Procedure: The particle size and polydispersity index (PDI) were determined by dynamic light scattering method using a Malvern laser particle size analyzer. 10 μL of liposome solution was diluted to 1 mL with RNase-free deionized water and added to a sample pool. Each sample was measured three times. The measurement conditions were: 90° scattering angle, 25° C.

[2] = Encapsulation rate, drug loading concentration and total RNA concentration detection (RiboGreen); format: physicochemical; conditions: for Drug loading concentration / Encapsulation rate / Total RNA concentration: LNP formulation of the named lipid; for encapsulation rate higher than that of ALC-0315 / encapsulation rate higher than that of HHMA / encapsulation rate higher than that of SM-102 / encapsulation rate higher than that of YK-009 / encapsulation rate higher than that of compound 21 / encapsulation rate higher than that of compound 23: difference of rates
[3] = tested on: 293T cells; assay: Fluorescence detection of Fluc-mRNA (cell transfection efficiency of LNP formulations); format: cell-based; conditions: for Relative light unit (RLU): LNP containing 0.3 μg Fluc-mRNA, 24 hours; for Multiples of values that equivalent to YK-201: RLU of YK-201 / RLU of the named lipid; for Multiples of values that equivalent to YK-202: RLU of YK-202 / RLU of the named lipid; for Multiples of values that equivalent to YK-209: RLU of YK-209 / RLU of the named lipid; for Ratio relative to SM-102: RLU of the named lipid / RLU of SM-102, times that of SM-102
Method in brief: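 293T cells at 10,000 per well, adhered overnight, then given LNPs carrying 0.3 μg Fluc-mRNA (cationic:neutral:structured:polymer-conjugated lipid 49:10:39.5:1.5 molar). After 24 h, luciferase signal read with luciferase kit reagents on an IVIS imaging system as transfection efficiency.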

[4] = tested on: 293T cells; assay: Cell survival rate assay (CCK-8); format: cell-based; conditions: for Cell survival rate: LNP containing 1.5 μg Fluc-mRNA, 24 hours, CCK-8; for cell survival rate higher than that of ALC-0315 / cell survival rate higher than that of HHMA / cell survival rate higher than that of Lipofectamine 3000 / cell survival rate higher than that of SM-102 / cell survival rate higher than that of compound 21 / cell survival rate higher than that of compound 23: difference of rates
Method in brief: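 293T cells seeded at 10,000 per well and grown overnight, then exposed for 24 h to LNPs (cationic/neutral/structured/PEG lipids 49:10:39.5:1.5) carrying 1.5 μg Fluc-mRNA, or Lipofectamine 3000. Viability read by CCK-8, 1 h incubation, absorbance at 450 nm.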

[5] = tested on: female BALB/C mice; assay: Mouse in vivo imaging of Fluc-mRNA LNP formulations; set-up: average radiation intensity (mRNA expression): unit not given here; conditions: for average radiation intensity (mRNA expression): 10 μg Fluc-mRNA LNP intramuscularly; for mRNA expression level in mice can reach, times that of ALC-0315 / mRNA expression level in mice can reach, times that of HHMA / mRNA expression level in mice can reach, times that of SM-102 / mRNA expression level in mice can reach, times that of compound 21 / mRNA expression level in mice can reach, times that of compound 23: time point not stated
Procedure: The LNP formulation containing 10 μg Fluc-mRNA (prepared according to Example 4) was injected intramuscularly into female BALB/C mice aged 4 to 6 weeks and weighing 17 to 19 g, and the mice were intraperitoneally injected with fluorescent imaging substrates at specific time points (6 h, 24 h, 48 h and 7 d) after administration. The mice moved freely for 5 minutes, and then the average radiation intensity (corresponding to the fluorescence expression intensity) of the protein expressed by the mRNA carried by the LNP in the mice was detected by IVIS Spectrum small animal in vivo imager. The test results are shown in Tables 14 to 17 and FIGS. 12 to 14.

## CCCCCCCCCCCOC(=O)CCCCCN(CCCCCCCC(=O)OC(CCCCCCC)CCCCCCC)CCN(C)CCO [YK-206]
[1]
  PDI: 18.8%
  Particle size: 216 nm
[2]
  drug loading concentration, times that of ALC-0315: 1.46 times
  drug loading concentration, times that of HHMA: 1.24 times
  drug loading concentration, times that of SM-102: 1.50 times
  drug loading concentration, times that of YK-009: 1.42 times
  drug loading concentration, times that of compound 21: 1.69 times
  drug loading concentration, times that of compound 23: 1.84 times
  total RNA concentration, times that of ALC-0315: 1.12 times
  total RNA concentration, times that of HHMA: 1.10 times
  total RNA concentration, times that of SM-102: 1.18 times
  total RNA concentration, times that of YK-009: 1.08 times
  total RNA concentration, times that of compound 21: 1.36 times
  total RNA concentration, times that of compound 23: 1.28 times
  Drug loading concentration: 38.09 µg/mL
  Encapsulation rate: 91.4%
  Total RNA concentration: 41.69 µg/mL
  encapsulation rate higher than that of ALC-0315: 28.60%
  encapsulation rate higher than that of HHMA: 30.90%
  encapsulation rate higher than that of SM-102: 29.10%
  encapsulation rate higher than that of YK-009: 28.40%
  encapsulation rate higher than that of compound 21: 33.60%
  encapsulation rate higher than that of compound 23: 36.20%
[3]; Fluc-mRNA LNP
  RLU / cell transfection efficiency, times that of ALC-0315: 9 times
  RLU / cell transfection efficiency, times that of HHMA: 10 times
  RLU / cell transfection efficiency, times that of Lipofectamine 3000: 17 times
  RLU / cell transfection efficiency, times that of YK-009: 4 times
  RLU / cell transfection efficiency, times that of compound 21: 14 times
  RLU / cell transfection efficiency, times that of compound 23: 15 times
  fluorescence absorption value / cell transfection efficiency, times that of YK-205: 20.29 times
[3]
  Relative light unit (RLU): 21058746 RLU
  Multiples of values that equivalent to YK-201: 1.35
  Multiples of values that equivalent to YK-202: 1.42
  Multiples of values that equivalent to YK-209: 1.28
[4]
  Cell survival rate: 74.57%
  cell survival rate higher than that of ALC-0315: 24.61%
  cell survival rate higher than that of HHMA: 9.01%
  cell survival rate higher than that of Lipofectamine 3000: 51.52%
  cell survival rate higher than that of SM-102: 6.02%
  cell survival rate higher than that of compound 21: 5.55%
  cell survival rate higher than that of compound 23: 4.47%
[5]; 6 h
  average radiation intensity (mRNA expression): 2068900
[5]; 24 h
  average radiation intensity (mRNA expression): 1553050
[5]; 48 h
  average radiation intensity (mRNA expression): 500150
[5]; 7 d
  average radiation intensity (mRNA expression): 23015
[5]
  mRNA expression level in mice can reach, times that of ALC-0315: 13 times
  mRNA expression level in mice can reach, times that of HHMA: 16 times
  mRNA expression level in mice can reach, times that of SM-102: 16 times
  mRNA expression level in mice can reach, times that of compound 21: 16 times
  mRNA expression level in mice can reach, times that of compound 23: 16 times

## CCCCCCCCCCOC(=O)CCCN(CCCCCC(=O)OCC(CCCCCCCC)CCCCCCCC)CCN(C)CCO [YK-207, 2-octyldecyl-6-(2-((2-(2-hydroxyethyl(methyl)amino)ethyl)(4-oxo-4-((decyloxy)butyl)amino) hexanoate]
[1]
  PDI: 18.9%
  Particle size: 192 nm
[2]
  drug loading concentration, times that of ALC-0315: 1.52 times
  drug loading concentration, times that of HHMA: 1.29 times
  drug loading concentration, times that of SM-102: 1.56 times
  drug loading concentration, times that of YK-009: 1.47 times
  drug loading concentration, times that of compound 21: 1.75 times
  drug loading concentration, times that of compound 23: 1.91 times
  total RNA concentration, times that of ALC-0315: 1.18 times
  total RNA concentration, times that of HHMA: 1.15 times
  total RNA concentration, times that of SM-102: 1.24 times
  total RNA concentration, times that of YK-009: 1.13 times
  total RNA concentration, times that of compound 21: 1.42 times
  total RNA concentration, times that of compound 23: 1.34 times
  Drug loading concentration: 39.60 µg/mL
  Encapsulation rate: 90.8%
  Total RNA concentration: 43.63 µg/mL
  encapsulation rate higher than that of ALC-0315: 28.00%
  encapsulation rate higher than that of HHMA: 30.30%
  encapsulation rate higher than that of SM-102: 28.50%
  encapsulation rate higher than that of YK-009: 27.80%
  encapsulation rate higher than that of compound 21: 33.00%
  encapsulation rate higher than that of compound 23: 35.60%
[3]; Fluc-mRNA LNP
  RLU / cell transfection efficiency, times that of ALC-0315: 9 times
  RLU / cell transfection efficiency, times that of HHMA: 10 times
  RLU / cell transfection efficiency, times that of Lipofectamine 3000: 17 times
  RLU / cell transfection efficiency, times that of YK-009: 4 times
  RLU / cell transfection efficiency, times that of compound 21: 14 times
  RLU / cell transfection efficiency, times that of compound 23: 15 times
  cell transfection efficiency, times that of YK-221: 960.71 times
  fluorescence absorption value / cell transfection efficiency, times that of YK-220: 124.13 times
[3]
  Relative light unit (RLU): 20878758 RLU
  Multiples of values that equivalent to YK-201: 1.36
  Multiples of values that equivalent to YK-202: 1.43
  Multiples of values that equivalent to YK-209: 1.29
[4]
  Cell survival rate: 73.88%
  cell survival rate higher than that of ALC-0315: 23.92%
  cell survival rate higher than that of HHMA: 8.32%
  cell survival rate higher than that of Lipofectamine 3000: 50.83%
  cell survival rate higher than that of SM-102: 5.33%
  cell survival rate higher than that of compound 21: 4.86%
  cell survival rate higher than that of compound 23: 3.78%
[5]; 6 h
  average radiation intensity (mRNA expression): 1974100
[5]; 24 h
  average radiation intensity (mRNA expression): 1523040
[5]; 48 h
  average radiation intensity (mRNA expression): 525800
[5]; 7 d
  average radiation intensity (mRNA expression): 22896
[5]
  mRNA expression level in mice can reach, times that of ALC-0315: 13 times
  mRNA expression level in mice can reach, times that of HHMA: 16 times
  mRNA expression level in mice can reach, times that of SM-102: 16 times
  mRNA expression level in mice can reach, times that of compound 21: 16 times
  mRNA expression level in mice can reach, times that of compound 23: 16 times

## CCCCCCCCCCCOC(=O)CCCCCN(CCCCCCCC(=O)OC(CCCCCCCC)CCCCCCCC)CCN(C)CCOC [YK-215]
[1]
  PDI: 20.8%
  Particle size: 219 nm
[2]
  Drug loading concentration: 29.30 µg/mL
  Encapsulation rate: 68.0%
  Total RNA concentration: 43.13 µg/mL
[3]
  Relative light unit (RLU): 981165 RLU
  Multiples of values that equivalent to YK-201: 29.03
  Multiples of values that equivalent to YK-202: 30.53
  Multiples of values that equivalent to YK-209: 21.46
  Ratio relative to SM-102: 0.59
[4]
  Cell survival rate: 44.59%
[5]; 6 h
  average radiation intensity (mRNA expression): 50564
[5]; 24 h
  average radiation intensity (mRNA expression): 6815
[5]; 48 h
  average radiation intensity (mRNA expression): 3640
[5]; 7 d
  average radiation intensity (mRNA expression): 1020

## CCCCCCCCCCOC(=O)CCCN(CCCCCC(=O)OCCC(CCCCCC)CCCCCC)CCOC(=O)SCCCN(C)C [YK-217, 3-hexylnonyl-11-(4-(decyloxy)-4-oxobutyl)-2-methyl-7-oxo-8-oxo-6-thio-2,11-diazaheptane-17-carboxylate]
[1]
  PDI: 17.9%
  Particle size: 210 nm
[2]
  Drug loading concentration: 42.19 µg/mL
  Encapsulation rate: 90.4%
  Total RNA concentration: 46.66 µg/mL
[3]
  Relative light unit (RLU): 71850 RLU
  Multiples of values that equivalent to YK-201: 396.42
  Multiples of values that equivalent to YK-202: 416.94
  Multiples of values that equivalent to YK-209: 293.09
  Ratio relative to SM-102: 0.04
[4]
  Cell survival rate: 42.27%
[5]; 6 h
  average radiation intensity (mRNA expression): 24585
[5]; 24 h
  average radiation intensity (mRNA expression): 2650
[5]; 48 h
  average radiation intensity (mRNA expression): 1024
[5]; 7 d
  average radiation intensity (mRNA expression): 523

## CCCCCCCCC(CCCCCCCC)COC(=O)CCCCCN(CCCCCC(=O)OCC(CCCCCCCC)CCCCCCCC)CCN(C)CCNC [YK-223]
[1]
  PDI: 25.8%
  Particle size: 211 nm
[2]
  Drug loading concentration: 37.51 µg/mL
  Encapsulation rate: 98.3%
  Total RNA concentration: 38.16 µg/mL
[3]
  Relative light unit (RLU): 75012 RLU
  Multiples of values that equivalent to YK-201: 379.71
  Multiples of values that equivalent to YK-202: 399.37
  Multiples of values that equivalent to YK-209: 280.74
  Ratio relative to SM-102: 0.05
[4]
  Cell survival rate: 36.64%
[5]; 6 h
  average radiation intensity (mRNA expression): 10355
[5]; 24 h
  average radiation intensity (mRNA expression): 1786
[5]; 48 h
  average radiation intensity (mRNA expression): 678
[5]; 7 d
  average radiation intensity (mRNA expression): 440
